Assay results from US20260022143A1, “Cyclic Peptide Inhibitors of IL-23” (JANSSEN PHARMACEUTICA NV, priority 2022, published 2026).
pIC50: −log10 of the molar value. Positions of bridges follow the written chain, without caps; N, C: chain ends. Non-standard residues stand in square brackets, D forms with d. Residues, ends and D or L forms follow the SMILES beside them. *: point of attachment. Trp(7-(3-AcNH-Ph)) = CC(=O)Nc1cccc(-c2cccc3c(C[C@H](N)C(=O)O)c[nH]c23)c1; Me3N+(CH2)2O(CH2)2O(CH2)2CO = C[N+](C)(C)CCOCCOCCC(=O)*; CH2CH2OCH2CH2OCH2CH2NMe3+ = C[N+](C)(C)CCOCCOCC*; Trp(7-Me) = Cc1cccc2c(C[C@H](N)C(=O)O)c[nH]c12; dLys(Me3) = C[N+](C)(C)CCCC[C@@H](N)C(=O)O; 2Nal = N[C@@H](Cc1ccc2ccccc2c1)C(=O)O; AEF = NCCOc1ccc(C[C@H](N)C(=O)O)cc1; 3Pal = N[C@@H](Cc1cccnc1)C(=O)O; Ethyl(2-guanidino) = N=C(N)NCC*; Lys(Me) = CNCCCC[C@H](N)C(=O)O; Pen = CC(C)(S)[C@H](N)C(=O)O; Thp = NC1(C(=O)O)CCOCC1; Sar = CNCC(=O)O

How the values were obtained:
IL-23R = target: T1, IL-23R (Homo sapiens, UniProt Q5VWK5); experiment: IL23R Reporter Assay; type: cell-based; conditions: HEK293 cells containing IL-23R, IL-12RP1 and STAT-inducible firefly luciferase reporter; 10 ng/mL IL-23 (EC90); 5 h at 37° C.; read-out: IL23R Reporter Assay
T1 construct: host or cells: HEK293
T1 sequence (Q5VWK5 24-629): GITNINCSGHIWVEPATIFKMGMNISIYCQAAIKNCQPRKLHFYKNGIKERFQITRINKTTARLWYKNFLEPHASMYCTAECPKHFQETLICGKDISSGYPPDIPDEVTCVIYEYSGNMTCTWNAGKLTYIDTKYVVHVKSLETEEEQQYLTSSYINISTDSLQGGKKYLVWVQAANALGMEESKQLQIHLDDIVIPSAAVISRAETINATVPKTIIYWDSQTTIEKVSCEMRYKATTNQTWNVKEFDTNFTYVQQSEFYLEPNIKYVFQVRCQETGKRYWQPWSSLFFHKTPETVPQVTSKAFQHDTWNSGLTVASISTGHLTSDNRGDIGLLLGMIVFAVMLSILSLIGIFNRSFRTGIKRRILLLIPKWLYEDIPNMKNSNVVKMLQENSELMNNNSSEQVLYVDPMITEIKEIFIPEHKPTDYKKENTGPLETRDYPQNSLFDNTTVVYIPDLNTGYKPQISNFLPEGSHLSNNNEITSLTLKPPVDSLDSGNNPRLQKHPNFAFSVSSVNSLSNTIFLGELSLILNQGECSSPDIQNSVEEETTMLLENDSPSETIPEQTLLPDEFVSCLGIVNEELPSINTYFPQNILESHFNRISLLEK

[1] = Exposed Polar Surface Area (EPSA); type: physicochemical; conditions: SFC on Chirex 3014 column; sample 1 mM DMSO stock; read-out: EPSA
Summary of the method: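 Polarity descriptor in Å² derived from retention time using 8 calibration standards re-run every 20 compounds. Duplicate injections of 1 mM DMSO stock; linear 5–60% modifier gradient (20 mM ammonium formate in MeOH) with CO2 at 4 mL/min, 35 °C, on a Chirex 3014 column.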

Compound | pIC50 (IL-23R) | EPSA [1] [A^2]
CC(=O)NCCCC[C@@H]1NC(=O)[C@H](Cc2c[nH]c3c(-c4cccc(NC(C)=O)c4)cccc23)NC(=O)[C@H]([C@@H](C)O)NC(=O)[C@H](CC(N)=O)NC(=O)[C@@H](NC(=O)[C@@H](CCCC[N+](C)(C)C)NC(C)=O)C(C)(C)SSC(C)(C)[C@@H](C(=O)N[C@@H](Cc2ccc(OCCN)cc2)C(=O)N[C@@H](Cc2ccc3ccccc3c2)C(=O)NC2(C(=O)N[C@@H](CCC(=O)O)C(=O)N[C@@H](CC(N)=O)C(=O)N[C@@H](Cc3cccnc3)C(=O)N(C)CC(N)=O)CCOCC2)NC1=O [compound 461] (Ac-[dLys(Me3)][Pen]NT[Trp(7-(3-AcNH-Ph))]K(Ac)[Pen][AEF][2Nal][Thp]EN[3Pal][Sar]-NH2; disulfide 2-7 (inferred)) | 8.85 | 192
CC(=O)N(C)CCCC[C@H](NC(=O)[C@H](CC(C)C)NC(=O)[C@H](Cc1ccc2ccccc2c1)NC(=O)[C@H](Cc1ccc(OCCOCCOCC[N+](C)(C)C)cc1)NC(=O)[C@H]1NC(=O)[C@H](CC(C)C)NC(=O)[C@H](Cc2c[nH]c3c(C)cccc23)NC(=O)[C@H]([C@@H](C)O)NC(=O)[C@H](CC(C)C)NC(=O)[C@@H](NC(=O)CCOCCOCC[N+](C)(C)C)C(C)(C)SSC1(C)C)C(=O)N[C@@H](CC(N)=O)C(=O)N[C@@H](Cc1cccnc1)C(=O)N(C)CC(=O)N(C)C [compound 463, cPEG3aCO-Pen(3)-L-T-7MeW-L-Pen(3)-APEG3f-2Nal-L-K(NMeAc)-N-3Pya-Sar-CON(Me)2] ({Me3N+(CH2)2O(CH2)2O(CH2)2CO}-[Pen]LT[Trp(7-Me)]L[Pen]Y(CH2CH2OCH2CH2OCH2CH2NMe3+)[2Nal]L[Lys(Me)](Ac)N[3Pal][Sar]-NMe2; disulfide 1-6) | 8.05 | 151
CC(=O)N(C)CCCC[C@H](NC(=O)[C@H](Cc1ccccc1)NC(=O)[C@H](Cc1ccc2ccccc2c1)NC(=O)[C@H](Cc1ccc(OCCOCCOCC[N+](C)(C)C)cc1)NC(=O)[C@H]1NC(=O)[C@H](Cc2ccccc2)NC(=O)[C@H](Cc2c[nH]c3c(C)cccc23)NC(=O)[C@H]([C@@H](C)O)NC(=O)[C@H](Cc2ccccc2)NC(=O)[C@@H](NC(=O)CCOCCOCC[N+](C)(C)C)C(C)(C)SSC1(C)C)C(=O)N[C@@H](CC(N)=O)C(=O)N[C@@H](Cc1cccnc1)C(=O)N(C)CC(=O)N(C)C [compound 464, cPEG3aCO-Pen(3)-F-T-7MeW-F-Pen(3)-APEG3f-2Nal-F-K(NMeAc)-N-3Pya-Sar-CON(Me)2] ({Me3N+(CH2)2O(CH2)2O(CH2)2CO}-[Pen]FT[Trp(7-Me)]F[Pen]Y(CH2CH2OCH2CH2OCH2CH2NMe3+)[2Nal]F[Lys(Me)](Ac)N[3Pal][Sar]-NMe2; disulfide 1-6) | 7.52 | 160
CC(=O)N(C)CCCC[C@@H]1NC(=O)[C@H](Cc2c[nH]c3c(C)cccc23)NC(=O)[C@H]([C@@H](C)O)NC(=O)[C@H](CC(=O)N(C)C)NC(=O)[C@@H](NC(=O)CCOCCOCC[N+](C)(C)C)C(C)(C)SSC(C)(C)[C@@H](C(=O)N[C@@H](Cc2ccc(OCCOCCOCC[N+](C)(C)C)cc2)C(=O)N[C@@H](Cc2ccc3ccccc3c2)C(=O)NC2(C(=O)N[C@@H](C)C(=O)N[C@@H](CC(N)=O)C(=O)N[C@@H](Cc3cccnc3)C(=O)N(C)CC(=O)N(C)C)CCOCC2)NC1=O [compound 466, cPEG3aCO-Pen(3)-N(N(Me)2)-T-7MeW-K(NMeAc)-Pen(3)-APEG3F-2Nal-THP-A-N-3Pya-Sar-CON(Me)2] ({Me3N+(CH2)2O(CH2)2O(CH2)2CO}-[Pen]D(NMe2)T[Trp(7-Me)][Lys(Me)](Ac)[Pen]Y(CH2CH2OCH2CH2OCH2CH2NMe3+)[2Nal][Thp]AN[3Pal][Sar]-NMe2; disulfide 1-6) | 8.74 | 153
CC(=O)N(C)CCCC[C@@H]1NC(=O)[C@H](Cc2c[nH]c3c(C)cccc23)NC(=O)[C@H]([C@@H](C)O)NC(=O)[C@H](CC(=O)N(C)C)NC(=O)[C@@H](NC(=O)CCOCCOCC[N+](C)(C)C)C(C)(C)SSC(C)(C)[C@@H](C(=O)N[C@@H](Cc2ccc(OCCOCCOCC[N+](C)(C)C)cc2)C(=O)N[C@@H](Cc2ccc3ccccc3c2)C(=O)NC2(C(=O)N[C@@H](CC(C)C)C(=O)N[C@@H](CC(N)=O)C(=O)N[C@@H](Cc3cccnc3)C(=O)N(C)CC(=O)N(C)C)CCOCC2)NC1=O [compound 467, cPEG3aCO-Pen(3)-N(N(Me)2)-T-7MeW-K(NMeAc)-Pen(3)-APEG3F-2Nal-THP-L-N-3Pya-Sar-CON(Me)2] ({Me3N+(CH2)2O(CH2)2O(CH2)2CO}-[Pen]D(NMe2)T[Trp(7-Me)][Lys(Me)](Ac)[Pen]Y(CH2CH2OCH2CH2OCH2CH2NMe3+)[2Nal][Thp]LN[3Pal][Sar]-NMe2; disulfide 1-6) | 8.92 | 154
CC(=O)N(C)CCCC[C@H](NC(=O)[C@H](C)NC(=O)[C@H](Cc1ccc2ccccc2c1)NC(=O)[C@H](Cc1ccc(OCCOCCOCC[N+](C)(C)C)cc1)NC(=O)[C@H]1NC(=O)[C@H](C)NC(=O)[C@H](Cc2c[nH]c3c(C)cccc23)NC(=O)[C@H]([C@@H](C)O)NC(=O)[C@H](C)NC(=O)[C@@H](NC(=O)CCOCCOCC[N+](C)(C)C)C(C)(C)SSC1(C)C)C(=O)N[C@@H](CC(N)=O)C(=O)N[C@@H](Cc1cccnc1)C(=O)N(C)CC(=O)N(C)C [compound 468, cPEG3aCO-Pen(3)-A-T-7MeW-A-Pen(3)-APEG3f-2Nal-A-K(NMeAc)-N-3Pya-Sar-CON(Me)2] ({Me3N+(CH2)2O(CH2)2O(CH2)2CO}-[Pen]AT[Trp(7-Me)]A[Pen]Y(CH2CH2OCH2CH2OCH2CH2NMe3+)[2Nal]A[Lys(Me)](Ac)N[3Pal][Sar]-NMe2; disulfide 1-6) | 7.60 | 151
CC(=O)N(C)CCCC[C@@H]1NC(=O)[C@H](Cc2c[nH]c3c(C)cccc23)NC(=O)[C@H]([C@@H](C)O)NC(=O)[C@H](CC(=O)N(C)C)NC(=O)[C@@H](NC(=O)CCOCCOCC[N+](C)(C)C)C(C)(C)SSC(C)(C)[C@@H](C(=O)N[C@@H](Cc2ccc(OCCOCCOCC[N+](C)(C)C)cc2)C(=O)N[C@@H](Cc2ccc3ccccc3c2)C(=O)NC2(C(=O)N[C@@H](Cc3ccccc3)C(=O)N[C@@H](CC(N)=O)C(=O)N[C@@H](Cc3cccnc3)C(=O)N(C)CC(=O)N(C)C)CCOCC2)NC1=O [compound 469, cPEG3aCO-Pen(3)-N(N(Me)2)-T-7MeW-K(NMeAc)-Pen(3)-APEG3F-2Nal-THP-F-N-3Pya-Sar-CON(Me)2] ({Me3N+(CH2)2O(CH2)2O(CH2)2CO}-[Pen]D(NMe2)T[Trp(7-Me)][Lys(Me)](Ac)[Pen]Y(CH2CH2OCH2CH2OCH2CH2NMe3+)[2Nal][Thp]FN[3Pal][Sar]-NMe2; disulfide 1-6) | 8.68 | 156
CC(=O)N(C)CCCC[C@@H]1NC(=O)[C@H](Cc2c[nH]c3c(C)cccc23)NC(=O)[C@H]([C@@H](C)O)NC(=O)[C@H](CC(=O)N(C)C)NC(=O)[C@@H](NC(=O)CCOCCOCC[N+](C)(C)C)C(C)(C)SSC(C)(C)[C@@H](C(=O)N[C@@H](Cc2ccc(OCCOCCOCC[N+](C)(C)C)cc2)C(=O)N[C@@H](Cc2ccc3ccccc3c2)C(=O)NC2(C(=O)N[C@@H](Cc3c[nH]c4ccccc34)C(=O)N[C@@H](CC(N)=O)C(=O)N[C@@H](Cc3cccnc3)C(=O)N(C)CC(=O)N(C)C)CCOCC2)NC1=O [compound 470, cPEG3aCO-Pen(3)-N(N(Me)2)-T-7MeW-K(NMeAc)-Pen(3)-APEG3F-2Nal-THP-W-N-3Pya-Sar-CON(Me)2] ({Me3N+(CH2)2O(CH2)2O(CH2)2CO}-[Pen]D(NMe2)T[Trp(7-Me)][Lys(Me)](Ac)[Pen]Y(CH2CH2OCH2CH2OCH2CH2NMe3+)[2Nal][Thp]WN[3Pal][Sar]-NMe2; disulfide 1-6) | 8.92 | 160
CC(=O)NCCCC[C@@H]1NC(=O)[C@H](Cc2c[nH]c3c(C)cccc23)NC(=O)[C@H]([C@@H](C)O)NC(=O)[C@H](CC(N)=O)NC(=O)[C@@H](NC(=O)CCOCCOCC[N+](C)(C)C)C(C)(C)SSC(C)(C)[C@@H](C(=O)N[C@@H](Cc2ccc(OCCNC(=N)N)cc2)C(=O)N[C@@H](Cc2ccc3ccccc3c2)C(=O)NC2(C(=O)N[C@@H](CCCCNC(C)=O)C(=O)N[C@@H](CC(N)=O)C(=O)N[C@@H](Cc3cccnc3)C(=O)N(C)CC(N)=O)CCOCC2)NC1=O [compound 471, cPEG3aCO-Pen(3)-N-T-7MeW-K(Ac)-Pen(3)-AEF(G)-2Nal-THP-K(Ac)-N-3Pya-Sar-CONH2] ({Me3N+(CH2)2O(CH2)2O(CH2)2CO}-[Pen]NT[Trp(7-Me)]K(Ac)[Pen]Y(Ethyl(2-guanidino))[2Nal][Thp]K(Ac)N[3Pal][Sar]-NH2; disulfide 1-6) | 9.16 | 174
